Test results taken from patent publication US6579878B1, “Pharmaceutical compositions and methods for use” (priority 2000, dated 2003).

What was measured:
Rat brain synaptosomes = assay: Neurotransmitter release from brain synaptosomes; format: biochemical; settings: in the presence of 10 uM ligand; percentage of release obtained with 10 uM (S)-(-)-nicotine or 300 uM TMA
Description: Neurotransmitter release was measured using techniques similar to those previously published (Bencherif M, et al.: JPET 279: 1413-1421,1996).
Rat brain synaptosomes were prepared as follows: Female Sprague Dawley rats (100-200 g) were killed by decapitation after anesthesia with 70% CO2. Brains are dissected, and hippocampus, striatum, and thalamus isolated, and homogenized in 0.32 M sucrose containing 5 mM HEPES pH 7.4 using a glass/glass homogenizer. The tissue was then centrifuged for 1000×g for 10 minutes and the pellet discarded. The supernatant was centrifuged at 12000×g for 20 minutes. The resultant pellet was re-suspended in perfusion buffer (128 mM NaCl, 1.2 mM KH2PO4, 2.4 mM KCl, 3.2 mM CaCl2, 1.2 mM MgSO4, 25 mM HEPES, 1 mM Ascorbic acid, 0.01 mM pargyline HCl and 10 mM glucose pH 7.4) and centrifuged for 15 minutes at 25000×g. The final pellet was resuspended in perfusion buffer and placed in a water bath (37° C.) for 10 minutes. […] The perfusate was collected directly into scintillation vials and released radioactivity was quantified using conventional liquid scintillation techniques. Release of neurotransmitter was determined in the presence of 10 uM of various ligands and was expressed as a percentage of release obtained with a concentration of 10 uM (S)-(−)-nicotine or 300 uM TMA resulting in maximal effects.

[1] = molecular target: muscle-type nicotinic acetylcholine receptors (Homo sapiens, UniProt P02708+P07510+Q07001); assay: Determination of interaction with muscle receptors; format: cell-based; settings: percentage of the maximal activation induced by (S)-(-)-nicotine
muscle-type nicotinic acetylcholine receptors, sequence (P02708 21-457): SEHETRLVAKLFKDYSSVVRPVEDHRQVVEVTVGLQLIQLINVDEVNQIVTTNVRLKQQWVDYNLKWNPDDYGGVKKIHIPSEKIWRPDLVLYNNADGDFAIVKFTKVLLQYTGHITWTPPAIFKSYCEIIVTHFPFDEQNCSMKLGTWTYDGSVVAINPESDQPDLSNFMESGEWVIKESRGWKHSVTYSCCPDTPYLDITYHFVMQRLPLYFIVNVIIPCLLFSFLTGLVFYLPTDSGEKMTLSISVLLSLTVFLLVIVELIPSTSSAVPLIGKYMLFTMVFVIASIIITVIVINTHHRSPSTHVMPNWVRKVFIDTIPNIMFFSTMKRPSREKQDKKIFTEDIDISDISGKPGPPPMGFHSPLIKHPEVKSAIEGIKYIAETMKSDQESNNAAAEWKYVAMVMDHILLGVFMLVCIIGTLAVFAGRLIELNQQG
muscle-type nicotinic acetylcholine receptors, sequence (P11230 24-501 partner): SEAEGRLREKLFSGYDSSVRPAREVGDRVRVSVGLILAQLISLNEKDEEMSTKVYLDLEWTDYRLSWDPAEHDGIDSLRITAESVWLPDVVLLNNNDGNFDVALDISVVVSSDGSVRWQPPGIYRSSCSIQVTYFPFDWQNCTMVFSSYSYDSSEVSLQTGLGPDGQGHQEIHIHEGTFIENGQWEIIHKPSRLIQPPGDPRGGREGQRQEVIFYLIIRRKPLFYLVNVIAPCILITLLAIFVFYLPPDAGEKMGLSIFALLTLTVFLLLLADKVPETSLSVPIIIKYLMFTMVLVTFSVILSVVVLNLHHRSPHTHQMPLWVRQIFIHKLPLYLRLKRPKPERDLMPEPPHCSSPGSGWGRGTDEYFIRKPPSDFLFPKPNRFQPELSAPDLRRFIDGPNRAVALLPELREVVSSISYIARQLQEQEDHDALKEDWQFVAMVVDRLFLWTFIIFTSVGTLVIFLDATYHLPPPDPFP
muscle-type nicotinic acetylcholine receptors, sequence (Q07001 22-517): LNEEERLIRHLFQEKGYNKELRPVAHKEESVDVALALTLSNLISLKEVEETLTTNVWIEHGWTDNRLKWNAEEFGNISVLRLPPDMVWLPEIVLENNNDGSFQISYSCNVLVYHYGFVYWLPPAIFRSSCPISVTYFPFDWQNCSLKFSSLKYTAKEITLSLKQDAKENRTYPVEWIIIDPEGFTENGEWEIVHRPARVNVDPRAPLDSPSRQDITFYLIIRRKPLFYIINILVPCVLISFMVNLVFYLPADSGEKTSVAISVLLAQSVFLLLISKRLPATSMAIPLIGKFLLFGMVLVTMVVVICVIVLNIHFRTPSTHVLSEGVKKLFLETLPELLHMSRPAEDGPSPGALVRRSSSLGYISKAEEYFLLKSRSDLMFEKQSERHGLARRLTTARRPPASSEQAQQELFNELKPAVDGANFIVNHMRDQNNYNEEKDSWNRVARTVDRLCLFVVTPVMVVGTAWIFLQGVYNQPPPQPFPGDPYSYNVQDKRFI
muscle-type nicotinic acetylcholine receptors, sequence (P07510 23-517): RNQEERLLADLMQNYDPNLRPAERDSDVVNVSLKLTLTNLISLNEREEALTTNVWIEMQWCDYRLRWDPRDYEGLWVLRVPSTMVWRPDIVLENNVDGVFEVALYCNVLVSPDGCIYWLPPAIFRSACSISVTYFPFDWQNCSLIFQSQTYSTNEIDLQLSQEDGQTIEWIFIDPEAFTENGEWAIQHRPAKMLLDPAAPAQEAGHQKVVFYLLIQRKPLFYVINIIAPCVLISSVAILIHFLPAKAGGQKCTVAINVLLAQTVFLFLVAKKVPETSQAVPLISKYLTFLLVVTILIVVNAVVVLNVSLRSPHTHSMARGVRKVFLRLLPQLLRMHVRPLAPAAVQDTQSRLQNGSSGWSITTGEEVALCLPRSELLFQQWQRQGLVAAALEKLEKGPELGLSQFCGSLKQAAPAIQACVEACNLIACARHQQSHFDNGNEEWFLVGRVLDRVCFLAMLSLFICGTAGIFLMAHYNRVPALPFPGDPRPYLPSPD
Description: (§1) The determination of the interaction of the compounds with muscle receptors was carried out in accordance with the techniques described in U.S. Pat. No. 5,597,919 to Dull et al. The maximal activation for individual compounds (Emax) was determined as a percentage of the maximal activation induced by (S)-(−)-nicotine. Reported Emax values represent the amount released relative to (S)-(−)-nicotine on a percentage basis. […] Such preferable compounds have the capability to activate human CNS receptors without activating muscle-type nicotinic acetylcholine receptors. Thus, there is provided a therapeutic window for utilization in the treatment of CNS disorders.

[2] = tested on: ganglia-type nicotinic acetylcholine receptors; assay: Determination of interaction with ganglion receptors; format: cell-based; settings: percentage of the maximal activation induced by (S)-(-)-nicotine
Description: as §1, with “ganglionic” for “muscle”, “ganglia-type” for “muscle-type”

## c1cncc(CC2CC3CCC2N3)c1 (stereo not drawn) [Example 1, 2-((3-pyridyl)methyl)-7-azabicyclo[2.2.1]heptane]
Rat brain synaptosomes
  Emax, neurotransmitter release: 15%
[1]
  Emax: 52%
[2]
  Emax, maximal activation at ganglia-type receptors: 48%
